{"source": "patent US10494597B2", "about": "“Contamination mitigation” (Butamax Advanced Biofuels LLC, priority 2014, dated 2019)", "key": {"[1]": {"test_system": "cell inoculum (shake flask culture)", "assay": "Shake flask culture with crude COFA with or without BHT, YSI glucose measurements", "format": "cell-based", "conditions": "BHT 0 wt % (control) to 5 wt % in crude COFA; 50% v/v COFA; 40 g/L glucose synthetic medium; 30° C., 260 rpm", "method": "In an experimental example, a cell inoculum originated from a 72 hour seed flask with a 30 g/L synthetic medium. The culture was inoculated into 40 g/L glucose in synthetic medium. […] The flasks were incubated in a thirty degree Celsius (30° C.), 260 revolutions per minute (rpm) shaker. One to one point five milliliter (1-1.5) mL samples were taken at points in time."}, "[2]": {"test_system": "yeast (e.g., Saccharomyces)", "conditions": "at comparable concentrations; cited from earlier work"}, "[3]": {"test_system": "gram-positive and gram-negative bacteria (e.g., lactobacillus)", "conditions": "cited from earlier work"}}}
{"smiles": "Cc1cc(C(C)(C)C)c(O)c(C(C)(C)C)c1", "note": "[BHT, butylated hydroxytoluene]", "values": [{"measurement": "glucose consumption", "setting": "[1]", "value": "No difference in glucose consumption was observed"}, {"measurement": "effect on yeast", "setting": "[2]", "value": "does not affect yeast"}, {"measurement": "antimicrobial activity to gram-positive and gram-negative bacteria", "setting": "[3]", "value": "exhibits antimicrobial activity"}]}
